Results taken from US10682371B2, “Small molecule conjugates specifically activated in tumor microenvironment for targeting and use thereof” (priority 2014, dated 2020).

Columns and labels:
[1] = system: Human non-small cell lung cancer A549; assay: Multiple tumor models in nude mice: A549; format: in vivo; settings: S1′ i.v. 17.6 μmol/kg once weekly for three weeks
Description: (§1) 1) Corresponding tumor cells were purchased from American type culture collection (ATCC) and identified according the specification provided by ATCC. Cells were cultivated in DMEM culture solution containing 10% fetal bovine serum at 37° C. and 5% CO2. The cells were passaged for every three days and cells within the 15th passage were used.
(§2) 2) Production of tumor. 5×10^6 corresponding cells were subcutaneously injected to the back of the nude mice. Mice were randomly grouped after the tumor reached at least 100 mm^3. Then treatment began and the day on which the treatment began was day 1.
(§3) 3) Course of treatment. […] The control group was administered by physiological saline. Animals were administered once weekly for three weeks.
(§4) 3) Course of treatment. According to the clinical application of A1, A1 was administered in a dose of ⅙ MTD, i.v., 17.6 μmol/kg. The control group was administered by physiological saline. Animals were administered once weekly for three weeks.
(§5) 3) Course of treatment. According to the clinical application of B1, B1 was administered in a dose of ⅙ MTD, i.v., 17.6 μmol/kg. The control group was administered by physiological saline. Animals were administered once weekly for three weeks.
as §3, §3

BALB/C mice = assay: Maximum tolerated dose (MTD) / acute toxicity by single intravenous injection; settings: for Mortality rate (%) / Number of dead animal: single iv; for Number of dead animal: 10 animals
[2] = system: Human ovarian cancer SK-OV-3; assay: Multiple tumor models in nude mice: SK-OV-3; format: in vivo; settings: S1′ i.v. 17.6 μmol/kg once weekly for three weeks
Description: as §1, §2, §3, §4, §5, §3, §3

[3] = system: Human breast cancer MDA-MB435; assay: Multiple tumor models in nude mice: MDA-MB435; format: in vivo; settings: S1′ i.v. 17.6 μmol/kg once weekly for three weeks
Description: as §1, §2, §3, §4, §5, §3, §3

[4] = Solubility / formulation test in solvent 1 and solvent 2; format: physicochemical
Human liver cancer Hepg2 = assay: Multiple tumor models in nude mice: Hepg2; format: in vivo; settings: S1′ i.v. 17.6 μmol/kg once weekly for three weeks
Description: as §1, §2, §3, §4, §5, §3, §3

[5] = system: Human prostate cancer PC-3 cells / Panc-1 cells; assay: Tumor treatment in nude mice (PC-3 cells purchased, Panc-1 cells injected; Examples 22, 32, 42); format: in vivo
Outline: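 Nude mice bearing subcutaneous Panc-1 xenografts (5×10^6 cells on the back) were randomized once tumors reached at least 100 mm^3. Drugs were given intravenously once weekly for four weeks, with saline controls. PC-3 cells were grown in DMEM/10% FBS and used within passage 15.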

4T1 cells = assay: BALB/C mice model for tumor metastasis (4T1, lung metastases); format: in vivo
Outline: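 Read-out: lung metastasis count under anatomical microscope after Bouin's staining, day 27. Treatment (IV every three days ×4, saline for controls) started after surgical removal of the ~1.5 cm subcutaneous tumor grown from 10^6 4T1 cells (passage ≤15) in BALB/C mice.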

Human heart = format: biochemical; settings: Human heart; 1 mg/ml, 37°
tumor tissue homogenates = format: biochemical
Outline: (§6)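 37° C; compound 1 mg/ml into 100 μg acidified tissue homogenate, pH6.0. Read-out: protease-mediated activation.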

[6] = system: Human fibrosarcoma HT-1080 tumor tissue homogenate; format: biochemical; settings: Human fibrosarcoma HT-1080; 100 μg acidized homogenate pH6.0, 1 mg/ml, 37°
Outline: as §6

[7] = Multiple tumor models in nude mice: HT1080; format: in vivo; settings: Human colon caner HT1080; S1′ i.v. 17.6 μmol/kg once weekly for three weeks
Description: as §1, §2, §3, §4, §5, §3, §3

[8] = nude mice, IV once weekly for four weeks, S1′-S4′ 24 mg/kg, Paclitaxel 8 mg/kg, Day 10
[9] = nude mice, IV once weekly for four weeks, S1′-S4′ 24 mg/kg, Paclitaxel 8 mg/kg, Day 24
[10] = 4T1, BALB/C mice, lung, day 27, IV every three days for 4 times, S1′-S4′ 12 mg/kg, Paclitaxel 4 mg/kg

SMILES: COCCOCC(=O)N[C@H](C)C(=O)N[C@H](C)C(=O)N[C@H](CC(N)=O)C(=O)Nc1ccc(COC(=O)OC(C(=O)OC2C[C@@]3(O)C(OC(=O)c4ccccc4)[C@@H]4C5(OC(C)=O)COC5C[C@H](O)[C@@]4(C)C(=O)[C@H](OC(C)=O)C(=C2C)C3(C)C)[C@@H](NC(=O)c2ccccc2)c2ccccc2)cc1 (stereo in doubt) [S1′, 2-(2-methoxyethoxy) acetylamino-L-Ala-L-Ala-L-Asn-p-amino-benzyl-paclitaxel]
- inhibitory rate on tumor (Day 26) [1]: 94.6%
- Behaviors and death observed (BALB/C mice; BALB/C mice receiving 90 mg/kg injection): no pilo-erection, hair tousle and lackluster, lethargy, stoop, irritable reaction and death
- MTD (maximum tolerated dose) (BALB/C mice; BALB/C mice, intravenous injection, one time): about 90 mg/kg
- Mortality rate (%) (BALB/C mice; BALB/C mice, 125 mg/kg): 0%
- Number of dead animal (BALB/C mice; BALB/C mice, 125 mg/kg): 0
- Mortality rate (%) (BALB/C mice; BALB/C mice, 150 mg/kg): 0%
- Number of dead animal (BALB/C mice; BALB/C mice, 150 mg/kg): 0
- Mortality rate (%) (BALB/C mice; BALB/C mice, 175 mg/kg): 0%
- Number of dead animal (BALB/C mice; BALB/C mice, 175 mg/kg): 0
- Mortality rate (%) (BALB/C mice; BALB/C mice, 200 mg/kg): 10%
- Number of dead animal (BALB/C mice; BALB/C mice, 200 mg/kg): 1
- inhibitory rate on tumor (Day 26) [2]: 85.6%
- inhibitory rate on tumor (Day 26) [3]: 90.7%
- solubility in Solvent 1 ([4]; Solvent 1 injectable water, dissolution concentration 10 mg/ml): soluble
- solubility in Solvent 2 ([4]; Solvent 2: 50% injectable water, 45%-49% propanediol, 1%-5% Tween80, dissolution concentration 10 mg/ml): soluble
- Concentration achieved, completely dissolved in both solvent 1 and solvent 2 ([4]; solvent 1 injectable water, solvent 2 50% injectable water, 42%-49% propanediol, 1%-8% Tween80): 10000 µg/mL
- inhibitory rate on tumor (Day 26) (Human liver cancer Hepg2): 84.3%
- Inhibition on tumor growth, in words ([5]; compared with parent drug group (same molar concentration) and control group): greatly improved
- Size of tumor (mm^3) Day 10 [5, 8]: 76.42 ± 14.96 mm^3
- inhibitory rate on tumor Day 10 [5, 8]: 35.7%
- Size of tumor (mm^3) Day 24 [5, 9]: 84.62 ± 45.94 mm^3
- inhibitory rate on tumor Day 24 [5, 9]: 66.1%
- Inhibitory rate on metastasis (4T1 cells; [10]): 99.2%
- Number of metastasized tumor (4T1 cells; [10]): 2 ± 3
- Inhibitory effect on tumor metastasis, in words (4T1 cells; compared with parent drug group and control group): greatly improved
- Activation ratio (%) in homogenates from different tumor tissues (Human heart): none
- Activation efficiency by tumor tissue, in words (tumor tissue homogenates): highest activation efficiency among the screened compounds
- Activation ratio (%) in homogenates from different tumor tissues [6]: 74.7%
- inhibitory rate on tumor (Day 26) [7]: 94.3%
